According to US10889553B2, “Asymmetric triazole benzamide derivatives and the compositions and methods of treatment regarding the same” (NysnoBio Ireland DAC, priority 2017, dated 2021):
Read-outs that look alike come from different tables or passages of the source.

Key:
HCT-116 (colon) = experiment: Cancer cell proliferation assay (acid phosphatase); assay type: cell-based; details: Table 6A, 72 hrs, read-out: HCT-116 IC50
Description: (§1) Measurement of the inhibitive effect of compounds on cancer cell proliferation was performed. Various cell lines were tested, including HCT-116 (colon); A549 (lung); TOV-21G (ovarian); Calu-6 (lung); and LS-174T (colon); and cell lines H1703 (Lung) and SKOV3 (ovarian); JEKO-1 (lymophoma); TOV-112D (ovarian) are tested. The assays were performed under the following conditions: Cells are harvested at a concentration of 4×10^4 cells/ml in media. Volumes of 100 μl/well of these cell suspensions were added to a 96 well plate using a multichannel pipette. Plates were gently agitated to ensure an even dispersion of cells over a given plate. Cells were then incubated at 37° C., 5% CO2 overnight. Following this, 100 μl of compound at varying concentrations was added to wells in triplicate. Control wells are those with 100 μl media containing 0.33% DMSO added to cell suspension (this is the equivalent volume of DMSO found in the highest concentration of drug). Plates were then gently agitated, as above, and incubated at 37° C., 5% CO2 for 72 hrs (control wells have reached 80-90% confluency). Assessment of cell proliferation in the presence of the compound was determined by the acid phosphatase assay.
(§2) Following the incubation period of 72 hrs, media was removed from the plates. Each well on the plate was washed twice with 100 μl PBS. This was then removed and 100 μl of freshly prepared phosphatase substrate (10 mM p-nitrophenol phosphate in 0.1M sodium acetate, 0.1% triton X-100, pH 5.5) was added to each well. The plates were then incubated in the dark at 37° C. for 2 hours. Colour development was monitored during this time. The enzymatic reaction was stopped by the addition of 50 μl of 1N NaOH. The plate was read in a dual beam plate reader at 405 nm with a reference wavelength of 620 nm. The absorbance reading of the latter is subtracted from the former, and the effect of the drug on cell proliferation was then measured as a percentage against the control cells (DMSO), which is taken as 0% inhibition.

TOV-21G (ovarian) = experiment: Cancer cell proliferation assay (acid phosphatase); assay type: cell-based; details: Table 6A, 72 hrs, read-out: TOV-21G IC50
Description: as §1, §2

A549 (lung) = experiment: Cancer cell proliferation assay (acid phosphatase); assay type: cell-based; details: Table 6A, 72 hrs, read-out: A549 IC50
Description: as §1, §2

Parkin ligase = biological target: T1, Parkin ligase (Homo sapiens, UniProt O60260); experiment: Activity-Based Probe Assay using Ubiquitin vinyl sulfone probe (TR-FRET); assay type: biochemical; details: heat activated Parkin, HA-Ub-VS probe, activation EC50; read-out: Probe Assay EC50 (μM) [Example 2]
T1 sequence (O60260 1-465): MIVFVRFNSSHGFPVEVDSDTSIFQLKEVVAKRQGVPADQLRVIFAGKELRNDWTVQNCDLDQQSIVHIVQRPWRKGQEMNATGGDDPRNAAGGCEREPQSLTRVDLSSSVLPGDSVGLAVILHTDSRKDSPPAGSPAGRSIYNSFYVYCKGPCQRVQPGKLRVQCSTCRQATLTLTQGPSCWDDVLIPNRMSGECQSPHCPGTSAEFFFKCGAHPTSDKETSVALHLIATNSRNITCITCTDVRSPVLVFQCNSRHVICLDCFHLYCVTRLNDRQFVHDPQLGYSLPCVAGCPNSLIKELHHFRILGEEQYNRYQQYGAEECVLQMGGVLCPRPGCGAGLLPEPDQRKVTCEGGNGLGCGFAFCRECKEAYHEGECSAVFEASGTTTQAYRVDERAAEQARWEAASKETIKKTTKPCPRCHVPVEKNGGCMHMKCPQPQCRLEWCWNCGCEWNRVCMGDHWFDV
How it was run: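 Heat-activated His-Parkin (5 min, 58 °C; 40 nM) was preincubated 15 min with compound, then reacted 60 min at 22 °C with 70 nM HA-Ub-VS in 50 mM HEPES pH 8.5, 150 mM NaCl, 0.01% Tween 20, 0.1% BSA. Probe labelling was read by anti-His-Eu/anti-HA-XL665 TR-FRET (665/615 ratio). % activation was normalized to DMSO and 100 nM control activator, then fitted with a four-parameter curve (Bottom=0, Top=100).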

LS-174T (colon) = experiment: Cancer cell proliferation assay (acid phosphatase); assay type: cell-based; details: Homo sapiens, LS174T; Table 6A; 72 hrs
Description: as §1, §2

Row | SMILES | IC50 (HCT-116 (colon); Homo sapiens, HCT-116, 72 h) [nM] | IC50 (TOV-21G (ovarian); Homo sapiens, TOV21G, 72 h) [nM] | IC50 (A549 (lung); Homo sapiens, A549, 72 h) [nM] | EC50 (Parkin ligase) [µM] | IC50 (LS-174T (colon)) [nM] | IC50 (HCT-116 (colon)) [nM] | IC50 (TOV-21G (ovarian)) [nM] | IC50 (A549 (lung)) [nM] | IC50 (TOV-21G (ovarian); Homo sapiens, TOV21G, 72 h, heading: TOV-21G IC50) [nM]
1 | Cc1ccccc1C(=O)Nc1nc(-c2cccc(F)n2)nn1-c1ccc(OC(F)(F)F)cc1 [Compound 129] | 2400 | 2000 | 2500 | 3 | – | – | – | – | –
2 | Cc1ccccc1C(=O)Nc1nc(-c2ncccc2C)nn1-c1cccc(F)c1 [Compound 146] | 400 | 500 | 300 | 1 | – | – | – | – | –
3 | Cc1cccc(-c2nc(NC(=O)c3ccccc3C)n(-c3ccc(OC(F)(F)F)cc3)n2)n1 [Compound 126] | 1700 | 1900 | 1400 | 2 | 1000 | – | – | – | –
4 | Cc1ccccc1C(=O)Nc1nc(NC(=O)c2ccno2)n(-c2cccc(F)c2)n1 [Compound 73] | 2500 | – | 2500 | 12 | – | – | – | – | –
5 | Cc1ccccc1C(=O)Nc1nc(NC(=O)c2ccno2)n(-c2ccc(OC(F)(F)F)cc2)n1 [Compound 71] | 2500 | – | 2400 | 3 | – | – | – | – | –
6 | Cc1ccccc1C(=O)Nc1nc(-c2cccc(F)n2)nn1-c1cccc(F)c1 [Compound 132] | – | – | – | 3 | – | 2200 | 1900 | 2400 | –
7 | Cc1ccccc1C(=O)Nc1nc(NCc2ccccc2)nn1-c1ccc(Cl)cc1 [Compound 108] | > 2500 | > 2500 | > 2500 | 1.5 | – | – | – | – | –
8 | Cc1cccc(-c2nc(NC(=O)c3ccccc3C)n(-c3ccc(C(F)(F)F)cc3)n2)n1 [Compound 133] | 2300 | 1800 | 2500 | 1 | – | – | – | – | –
9 | Cc1ccccc1C(=O)Nc1nc(NC(=O)c2ccccc2C)n(-c2ccc(N3CCN(C(=O)OC(C)(C)C)CC3)cc2)n1 [Compound 59] | 801000 | – | 810000 | 3 | – | – | – | – | 938
10 | Cc1ccccc1C(=O)Nc1nc(NCc2ccccc2Cl)nn1-c1ccc(OC(F)(F)F)cc1 [Compound 116] | > 2500 | > 2500 | > 2500 | 2 | – | – | – | – | –
11 | Cc1cccc(-c2nc(NC(=O)c3ccccc3C)n(-c3ccc(Cl)cc3)n2)n1 [Compound 127] | 1700 | 2100 | 1100 | 2 | 1600 | – | – | – | –
12 | Cc1ccccc1C(=O)Nc1nc(-c2cccc(F)n2)nn1-c1cccc(F)c1 [Compound 128] | 2500 | 2400 | 2500 | 5 | – | – | – | – | –
13 | Cc1ccccc1C(=O)Nc1nc(-c2cccc(F)n2)nn1-c1ccc(C(F)(F)F)cc1 [Compound 131] | 2300 | 2200 | 2300 | 2 | – | – | – | – | –
14 | Cc1ccccc1C(=O)Nc1nc(-c2cccc(F)n2)nn1-c1ccc(Cl)cc1 [Compound 134] | 2300 | 1800 | 2600 | 4 | – | – | – | – | –
15 | Cc1ccccc1C(=O)Nc1nc(NC(=O)c2ccccc2C)n(-c2ccc(N3CCC3)cc2)n1 [Compound 64] | 2300 | 2400 | 2400 | 8 | 2600 | – | – | – | –
16 | Cc1ccccc1C(=O)Nc1nc(NC(=O)c2ccno2)n(-c2ccc(C(F)(F)F)cc2)n1 [Compound 75] | 2400 | – | 2500 | 4 | 1000 | – | – | – | –
17 | Cc1cccc(C(=O)Nc2nc(NC(=O)c3cccc(C)c3)n(-c3ccccc3)n2)c1 [Compound F3] | 2000 | 2300 | 2300 | – | – | – | – | – | –
